According to PubChem BioAssay (NCI):
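Test compounds were applied to cells in 96-well plates for 48 hours at 5 doses. Abbreviation: GI50, concentration required for 50% inhibition of growth. The concentration for full growth arrest is given as TGI.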

Key:
Assay in all cases: NCI anticancer screen, dose series, 48 h
SF-539 CNS = tested on: SF-539 CNS
M14 melanoma = tested on: M14 melanoma
TK-10 renal = tested on: TK-10 renal
UACC-257 melanoma = tested on: UACC-257 melanoma
T-47D breast = tested on: T-47D breast
HT29 colon = tested on: HT29 colon
SNB-19 CNS = tested on: SNB-19 CNS
KM12 colon = tested on: KM12 colon
HOP-92 NSCLC = tested on: HOP-92 NSCLC
A549 NSCLC = tested on: A549 NSCLC
A498 renal = tested on: A498 renal
HOP-62 NSCLC = tested on: HOP-62 NSCLC
OVCAR-4 ovarian = tested on: OVCAR-4 ovarian
NCI/ADR-RES ovarian = tested on: NCI/ADR-RES ovarian
RXF 393 renal = tested on: RXF 393 renal
LOX IMVI melanoma = tested on: LOX IMVI melanoma
U251 CNS = tested on: U251 CNS
SW-620 colon = tested on: SW-620 colon
HS 578T breast = tested on: HS 578T breast
SK-MEL-2 melanoma = tested on: SK-MEL-2 melanoma
NCI-H23 lung = tested on: NCI-H23 lung
CCRF-CEM leukemia = tested on: CCRF-CEM leukemia
SN12C renal = tested on: SN12C renal
SK-MEL-5 melanoma = tested on: SK-MEL-5 melanoma
UO-31 renal = tested on: UO-31 renal
IGROV1 ovarian = tested on: IGROV1 ovarian
BT-549 breast = tested on: BT-549 breast
SF-268 CNS = tested on: SF-268 CNS
NCI-H460 lung = tested on: NCI-H460 lung
DU-145 prostate = tested on: DU-145 prostate
MDA-MB-435 = tested on: MDA-MB-435
786-0 renal = tested on: 786-0 renal
MDA-MB-231 breast = tested on: MDA-MB-231 breast
UACC-62 melanoma = tested on: UACC-62 melanoma
MALME-3M melanoma = tested on: MALME-3M melanoma
OVCAR-3 ovarian = tested on: OVCAR-3 ovarian
SF-295 CNS = tested on: SF-295 CNS
RPMI-8226 leukemia = tested on: RPMI-8226 leukemia
NCI-H226 lung = tested on: NCI-H226 lung
EKVX NSCLC = tested on: EKVX NSCLC
HCT-116 colon = tested on: HCT-116 colon
SK-OV-3 ovarian = tested on: SK-OV-3 ovarian
HCC-2998 colon = tested on: HCC-2998 colon
PC-3 prostate = tested on: PC-3 prostate
SR leukemia = tested on: SR leukemia
K-562 leukemia = tested on: K-562 leukemia
MOLT-4 leukemia = tested on: MOLT-4 leukemia
NCI-H522 lung = tested on: NCI-H522 lung
OVCAR-5 ovarian = tested on: OVCAR-5 ovarian
MCF7 breast = tested on: MCF7 breast
SNB-75 CNS = tested on: SNB-75 CNS
HCT-15 colon = tested on: HCT-15 colon
HL-60(TB) leukemia = tested on: HL-60(TB) leukemia
SK-MEL-28 melanoma = tested on: SK-MEL-28 melanoma
COLO 205 colon = tested on: COLO 205 colon
ACHN renal = tested on: ACHN renal
OVCAR-8 ovarian = tested on: OVCAR-8 ovarian

Compound `CCNCCCn1c2c(c3ccc(F)cc3c1=O)C(=O)c1cc(OC)cnc1-2` has a GI50 (SF-539 CNS) of 0.32 µM, a TGI (SF-539 CNS) of 1.39 µM and a GI50 (M14 melanoma) of 0.336 µM. It also gave a TGI (M14 melanoma) of 1.72 µM, a GI50 (TK-10 renal) of 0.296 µM and a TGI (TK-10 renal) of 1.67 µM. The GI50 (UACC-257 melanoma) was 0.403 µM, the TGI (UACC-257 melanoma) was 2.16 µM and the GI50 (T-47D breast) was 0.145 µM. For the same compound, the TGI (T-47D breast) was 0.761 µM, the GI50 (HT29 colon) was 0.147 µM and the TGI (HT29 colon) was 0.86 µM. It also gave a GI50 (SNB-19 CNS) of 0.16 µM, a TGI (SNB-19 CNS) of 1.26 µM and a GI50 (KM12 colon) of 0.259 µM. The TGI (KM12 colon) was 10 µM, the GI50 (HOP-92 NSCLC) was 0.36 µM and the TGI (HOP-92 NSCLC) was 4.39 µM. It also gave a GI50 (A549 NSCLC) of 0.0643 µM, a TGI (A549 NSCLC) of 0.256 µM and a GI50 (A498 renal) of 0.248 µM. The TGI (A498 renal) was 1.35 µM, the GI50 (HOP-62 NSCLC) was 0.149 µM and the TGI (HOP-62 NSCLC) was 0.472 µM. The GI50 (OVCAR-4 ovarian) was 0.46 µM, the TGI (OVCAR-4 ovarian) was 11 µM and the GI50 (NCI/ADR-RES ovarian) was 0.374 µM. The TGI (NCI/ADR-RES ovarian) was 4.89 µM, the GI50 (RXF 393 renal) was 0.26 µM and the TGI (RXF 393 renal) was 0.922 µM. It also gave a GI50 (LOX IMVI melanoma) of 0.141 µM, a TGI (LOX IMVI melanoma) of 0.319 µM and a GI50 (U251 CNS) of 0.1 µM. The TGI (U251 CNS) was 0.506 µM, the GI50 (SW-620 colon) was 0.17 µM and the TGI (SW-620 colon) was 5.55 µM. For the same compound, the GI50 (HS 578T breast) was 1.62 µM, the TGI (HS 578T breast) was 13.5 µM and the GI50 (SK-MEL-2 melanoma) was 1.13 µM. For the same compound, the TGI (SK-MEL-2 melanoma) was 4.12 µM, the GI50 (NCI-H23 lung) was 0.302 µM and the TGI (NCI-H23 lung) was 1.54 µM. For the same compound, the GI50 (CCRF-CEM leukemia) was 0.164 µM, the TGI (CCRF-CEM leukemia) was 1.12 µM and the GI50 (SN12C renal) was 0.151 µM. The TGI (SN12C renal) was 0.763 µM, the GI50 (SK-MEL-5 melanoma) was 0.254 µM and the TGI (SK-MEL-5 melanoma) was 1.06 µM. The GI50 (UO-31 renal) was 0.123 µM, the TGI (UO-31 renal) was 0.568 µM and the GI50 (IGROV1 ovarian) was 0.33 µM. The TGI (IGROV1 ovarian) was 4.49 µM, the GI50 (BT-549 breast) was 0.936 µM and the TGI (BT-549 breast) was 5.14 µM. It also gave a GI50 (SF-268 CNS) of 0.386 µM, a TGI (SF-268 CNS) of 10.9 µM and a GI50 (NCI-H460 lung) of 0.0457 µM. It also gave a TGI (NCI-H460 lung) of 0.222 µM, a GI50 (DU-145 prostate) of 0.215 µM and a TGI (DU-145 prostate) of 1.37 µM. For the same compound, the GI50 (MDA-MB-435) was 0.477 µM, the TGI (MDA-MB-435) was 2.13 µM and the GI50 (786-0 renal) was 0.195 µM. For the same compound, the TGI (786-0 renal) was 0.755 µM, the GI50 (MDA-MB-231 breast) was 0.404 µM and the TGI (MDA-MB-231 breast) was 1.93 µM. It also gave a GI50 (UACC-62 melanoma) of 0.341 µM, a TGI (UACC-62 melanoma) of 1.85 µM and a GI50 (MALME-3M melanoma) of 0.329 µM. For the same compound, the TGI (MALME-3M melanoma) was 1.44 µM, the GI50 (OVCAR-3 ovarian) was 0.282 µM and the TGI (OVCAR-3 ovarian) was 2.14 µM. For the same compound, the GI50 (SF-295 CNS) was 0.194 µM, the TGI (SF-295 CNS) was 0.721 µM and the GI50 (RPMI-8226 leukemia) was 0.144 µM. It also gave a TGI (RPMI-8226 leukemia) of 0.692 µM, a GI50 (NCI-H226 lung) of 0.144 µM and a TGI (NCI-H226 lung) of 0.327 µM. It also gave a GI50 (EKVX NSCLC) of 0.328 µM, a TGI (EKVX NSCLC) of 2.78 µM and a GI50 (HCT-116 colon) of 0.136 µM. The TGI (HCT-116 colon) was 0.55 µM, the GI50 (SK-OV-3 ovarian) was 0.221 µM and the TGI (SK-OV-3 ovarian) was 0.752 µM. It also gave a GI50 (HCC-2998 colon) of 1.06 µM, a TGI (HCC-2998 colon) of 2.5 µM and a GI50 (PC-3 prostate) of 0.301 µM. For the same compound, the TGI (PC-3 prostate) was 10.3 µM, the GI50 (SR leukemia) was 0.127 µM and the TGI (SR leukemia) was 0.978 µM. For the same compound, the GI50 (K-562 leukemia) was 0.206 µM, the TGI (K-562 leukemia) was 1.68 µM and the GI50 (MOLT-4 leukemia) was 0.0485 µM. For the same compound, the TGI (MOLT-4 leukemia) was 0.369 µM, the GI50 (NCI-H522 lung) was 0.0562 µM and the TGI (NCI-H522 lung) was 1.02 µM. For the same compound, the GI50 (OVCAR-5 ovarian) was 0.331 µM, the TGI (OVCAR-5 ovarian) was 1.9 µM and the GI50 (MCF7 breast) was 0.0427 µM. For the same compound, the TGI (MCF7 breast) was 2.75 µM, the GI50 (SNB-75 CNS) was 0.364 µM and the TGI (SNB-75 CNS) was 5.03 µM. It also gave a GI50 (HCT-15 colon) of 0.228 µM, a TGI (HCT-15 colon) of 3.32 µM and a GI50 (HL-60(TB) leukemia) of 0.202 µM. For the same compound, the TGI (HL-60(TB) leukemia) was 0.644 µM, the GI50 (SK-MEL-28 melanoma) was 1.23 µM and the TGI (SK-MEL-28 melanoma) was 3.45 µM. It also gave a GI50 (COLO 205 colon) of 0.0688 µM, a TGI (COLO 205 colon) of 1.16 µM and a GI50 (ACHN renal) of 0.127 µM. For the same compound, the TGI (ACHN renal) was 0.371 µM, the GI50 (OVCAR-8 ovarian) was 0.183 µM and the TGI (OVCAR-8 ovarian) was 0.992 µM.
